In patent US20200360520A1, “USE OF RIFAMYCIN-QUINOLIZIDONE COUPLING MOLECULE” (priority 2019, published 2020):
≈ marks a conversion by molar mass, not a printed value. Like-named read-outs stand apart in the source and are kept apart here.

Columns and labels:
Format in all cases: cell-based
Mycobacterium avium [1] = test: MIC by micro broth dilution method (resazurin microtiter assay); conditions: read-out: Minimum Inhibitory Concentration (MIC)
Mycobacterium kansasii [2] = test: as above; conditions: Mycobacterium kansasii, read-out: Minimum Inhibitory Concentration (MIC)
[3] = tested on: Mycobacterium intracellulare; test: as above; conditions: Mycobacterium intracellulare, MH Culture Medium, read-out: Minimum Inhibitory Concentration (MIC)
[4] = tested on: Mycobacterium massiliense; test: as above; conditions: Mycobacteroides abscessus, MH Culture Medium, read-out: Minimum Inhibitory Concentration (MIC)
Mycobacterium fortuitum = test: as above; conditions: Mycolicibacterium fortuitum, MH Culture Medium, read-out: Minimum Inhibitory Concentration (MIC)
Mycodacterium chelonei = test: as above; conditions: MH Culture Medium; Chelonei (standard strain); read-out: Minimum Inhibitory Concentration (MIC)
Mycobacterium abscessus [5] = test: as above; conditions: Mycobacteroides abscessus, read-out: Minimum Inhibitory Concentration (MIC)
Mycobacterium avium [6] = test: MBC test (plating on agar, CFU count); conditions: Mycobacterium avium, read-out: Minimum Bactericidal Concentration (MBC)
Mycobacterium abscessus [7] = test: MBC test (plating on agar, CFU count)
Mycobacterium kansasii [8] = test: MBC test (plating on agar, CFU count); conditions: Mycobacterium kansasii, Mycobacterium kansasii, read-out: Minimum Bactericidal Concentration (MBC)
[9] = MH Culture Medium, Avium (standard strain)
[10] = MH Culture Medium, clinically isolated strain Avium (S31)
[11] = MH Culture Medium, clinically isolated strain Avium (S123)
[12] = MH Culture Medium, clinically isolated strain Avium (S559)
[13] = MH Culture Medium, clinically isolated strain Avium (S568)
[14] = MH Culture Medium, clinically isolated strain Avium (S577)
[15] = MH Culture Medium, clinically isolated strain Avium (S597)
[16] = MH Culture Medium, clinically isolated strain Avium (S602)
[17] = MH Culture Medium, Kansasii (standard strain)
[18] = MH Culture Medium, clinically isolated strain Kansasii (S9)
[19] = MH Culture Medium, clinically isolated strain Kansasii (S199)
[20] = MH Culture Medium, clinically isolated strain Kansasii (S520)
[21] = MH Culture Medium, clinically isolated strain Kansasii (S609)
[22] = Intracellulare (standard strain)
[23] = clinically isolated strain Intracellulare (S90)
[24] = clinically isolated strain Intracellulare (S261)
[25] = clinically isolated strain Intracellulare (S269)
[26] = clinically isolated strain Intracellulare (S290)
[27] = clinically isolated strain Intracellulare (S291)
[28] = clinically isolated strain Intracellulare (S298)
[29] = clinically isolated strain Intracellulare (S541)
[30] = clinically isolated strain Intracellulare (S623)
[31] = clinically isolated strain Intracellulare (ZPS)
[32] = clinically isolated strain intracellulare (S442)
[33] = clinically isolated strain Massiliense (D10)
[34] = clinically isolated strain Massiliense (D14)
[35] = clinically isolated strain Massiliense (D18)
[36] = clinically isolated strain Fortuitum (S103)
[37] = clinically isolated strain Fortuitum (S111)

`CO[C@H]1/C=C/O[C@@]2(C)Oc3c(C)c(O)c4c(c3C2=O)C2=NC3(CCN(CC(C)C)CC3)NC2=C(NC(=O)/C(C)=C\C=C\[C@H](C)[C@H](O)[C@@H](C)[C@@H](O)[C@@H](C)[C@H](OC(C)=O)[C@@H]1C)C4=O` [Rifabutin, rifabutin] was tested. Which MIC (Mycobacterium avium [1]; [9]) did it give?
The MIC was 0.0625 µg/mL (≈ 0.0738 µM).

What about the MIC (Mycobacterium avium [1]; [10]) of the same compound?
The MIC was 0.0625 µg/mL (≈ 0.0738 µM).

And the MIC (Mycobacterium avium [1]; [11])?
Its MIC is 0.0625 µg/mL (≈ 0.0738 µM).

And the MIC (Mycobacterium avium [1]; [12])?
Its MIC is 0.0625 µg/mL (≈ 0.0738 µM).

And the MIC (Mycobacterium avium [1]; [13])?
Its MIC is 0.0625 µg/mL (≈ 0.0738 µM).

And the MIC (Mycobacterium avium [1]; [14])?
The MIC was 0.0625 µg/mL (≈ 0.0738 µM).

And the MIC (Mycobacterium avium [1]; [15])?
The MIC was 0.0625 µg/mL (≈ 0.0738 µM).

And the MIC (Mycobacterium avium [1]; [16])?
The MIC was 0.0625 µg/mL (≈ 0.0738 µM).

And the MIC (Mycobacterium kansasii [2]; [17])?
Its MIC is 0.0625 µg/mL (≈ 0.0738 µM).

And the MIC (Mycobacterium kansasii [2]; [18])?
Its MIC is 0.0625 µg/mL (≈ 0.0738 µM).

What about the MIC (Mycobacterium kansasii [2]; [19]) of the same compound?
The MIC was 0.0625 µg/mL (≈ 0.0738 µM).

What about the MIC (Mycobacterium kansasii [2]; [20]) of the same compound?
The MIC was 0.0625 µg/mL (≈ 0.0738 µM).

What about the MIC (Mycobacterium kansasii [2]; [21]) of the same compound?
Its MIC is 0.0625 µg/mL (≈ 0.0738 µM).

What about the MIC [3, 22] of the same compound?
Its MIC is 0.0625 µg/mL (≈ 0.0738 µM).

What about the MIC [3, 23] of the same compound?
The MIC was 0.125 µg/mL (≈ 0.148 µM).

And the MIC [3, 24]?
Its MIC is 0.25 µg/mL (≈ 0.295 µM).

What about the MIC [3, 25] of the same compound?
Its MIC is 0.0625 µg/mL (≈ 0.0738 µM).

And the MIC [3, 26]?
Its MIC is 0.0625 µg/mL (≈ 0.0738 µM).

What about the MIC [3, 27] of the same compound?
The MIC was 0.0625 µg/mL (≈ 0.0738 µM).

What about the MIC [3, 28] of the same compound?
Its MIC is 0.5 µg/mL (≈ 0.59 µM).

What about the MIC [3, 29] of the same compound?
The MIC was 0.125 µg/mL (≈ 0.148 µM).

And the MIC [3, 30]?
The MIC was 0.25 µg/mL (≈ 0.295 µM).

What about the MIC [3, 31] of the same compound?
The MIC was 0.0625 µg/mL (≈ 0.0738 µM).

What about the MIC [3, 32] of the same compound?
Its MIC is 0.0625 µg/mL (≈ 0.0738 µM).

What about the MIC [4, 33] of the same compound?
Its MIC is greater than 64 µg/mL.

And the MIC [4, 34]?
Its MIC is 64 µg/mL (≈ 75.6 µM).

And the MIC [4, 35]?
The MIC was 64 µg/mL (≈ 75.6 µM).

And the MIC (Mycobacterium fortuitum; Fortuitum (standard strain))?
The MIC was 4 µg/mL (≈ 4.72 µM).

What about the MIC (Mycobacterium fortuitum; [36]) of the same compound?
Its MIC is 32 µg/mL (≈ 37.8 µM).

And the MIC (Mycobacterium fortuitum; [37])?
Its MIC is 4 µg/mL (≈ 4.72 µM).

And the MIC (Mycodacterium chelonei)?
The MIC was 64 µg/mL (≈ 75.6 µM).

Which MIC (Mycobacterium avium [1]; 7H9 Broth, Mycobacterium avium Rough) does the source give for `CO[C@H]1/C=C/O[C@@]2(C)Oc3c(C)c(O)c4c(O)c(c(/C=N/N5CCN(C)CC5)c(O)c4c3C2=O)NC(=O)/C(C)=C\C=C\[C@H](C)[C@H](O)[C@@H](C)[C@@H](O)[C@@H](C)[C@H](OC(C)=O)[C@@H]1C` [Rifampicin, rifampicin] here?
Its MIC is 8 µg/mL (≈ 9.72 µM).

What about the MIC (Mycobacterium avium [1]; 7H9 Broth, Mycobacterium avium Smooth) of the same compound?
The MIC was 0.5 µg/mL (≈ 0.608 µM).

And the MIC (Mycobacterium avium [1]; MH Broth, Mycobacterium avium Rough)?
The MIC was 8 µg/mL (≈ 9.72 µM).

And the MIC (Mycobacterium avium [1]; MH Broth, Mycobacterium avium Smooth)?
The MIC was 1 µg/mL (≈ 1.22 µM).

What about the MIC (Mycobacterium avium [1]; [9]) of the same compound?
The MIC was 0.25 µg/mL (≈ 0.304 µM).

And the MIC (Mycobacterium avium [1]; [10])?
Its MIC is 0.0625 µg/mL (≈ 0.0759 µM).

And the MIC (Mycobacterium avium [1]; [11])?
The MIC was 8 µg/mL (≈ 9.72 µM).

What about the MIC (Mycobacterium avium [1]; [12]) of the same compound?
The MIC was 0.125 µg/mL (≈ 0.152 µM).

What about the MIC (Mycobacterium avium [1]; [13]) of the same compound?
The MIC was 4 µg/mL (≈ 4.86 µM).

And the MIC (Mycobacterium avium [1]; [14])?
The MIC was 0.125 µg/mL (≈ 0.152 µM).

What about the MIC (Mycobacterium avium [1]; [15]) of the same compound?
The MIC was 8 µg/mL (≈ 9.72 µM).

What about the MIC (Mycobacterium avium [1]; [16]) of the same compound?
Its MIC is 2 µg/mL (≈ 2.43 µM).

What about the MIC (Mycobacterium abscessus [5]; 7H9 Broth) of the same compound?
Its MIC is greater than 64 µg/mL.

And the MIC (Mycobacterium abscessus [5]; MH Broth)?
The MIC was greater than 64 µg/mL.

And the MIC (Mycobacterium kansasii [2]; 7H9 Broth)?
Its MIC is 16 µg/mL (≈ 19.4 µM).

What about the MIC (Mycobacterium kansasii [2]; MH Broth) of the same compound?
The MIC was 16 µg/mL (≈ 19.4 µM).

And the MIC (Mycobacterium kansasii [2]; [17])?
Its MIC is 0.125 µg/mL (≈ 0.152 µM).

What about the MIC (Mycobacterium kansasii [2]; [18]) of the same compound?
The MIC was 0.125 µg/mL (≈ 0.152 µM).

What about the MIC (Mycobacterium kansasii [2]; [19]) of the same compound?
The MIC was 0.0625 µg/mL (≈ 0.0759 µM).

And the MIC (Mycobacterium kansasii [2]; [20])?
The MIC was 0.0625 µg/mL (≈ 0.0759 µM).

And the MIC (Mycobacterium kansasii [2]; [21])?
The MIC was 0.0625 µg/mL (≈ 0.0759 µM).

What about the MBC (Mycobacterium avium [6]; 7H9 Culture Medium, Mycobacterium avium Rough) of the same compound?
The MBC was greater than 64 µg/mL.

What about the MBC (Mycobacterium avium [6]; 7H9 Culture Medium, Mycobacterium avium Smooth) of the same compound?
The MBC was 4 µg/mL (≈ 4.86 µM).

What about the MBC (Mycobacterium avium [6]; MH Culture Medium, Mycobacterium avium Smooth) of the same compound?
The MBC was 4 µg/mL (≈ 4.86 µM).

What about the “Minimum Bactericidal Concentration (MBC)” value (Mycobacterium abscessus [7]; MH Culture Medium) of the same compound?
Its value is greater than 64 µg/mL.

What about the MBC (Mycobacterium abscessus [7]; Mycobacteroides abscessus, 7H9 Culture Medium, read-out: Minimum Bactericidal Concentration (MBC)) of the same compound?
The MBC was greater than 64 µg/mL.

And the MBC (Mycobacterium kansasii [8]; 7H9 Culture Medium)?
The MBC was 4 µg/mL (≈ 4.86 µM).

And the MBC (Mycobacterium kansasii [8]; MH Culture Medium)?
The MBC was 4 µg/mL (≈ 4.86 µM).

And the MIC [3, 22]?
The MIC was 0.25 µg/mL (≈ 0.304 µM).

What about the MIC [3, 23] of the same compound?
Its MIC is 8 µg/mL (≈ 9.72 µM).

What about the MIC [3, 24] of the same compound?
Its MIC is 16 µg/mL (≈ 19.4 µM).

And the MIC [3, 25]?
The MIC was 4 µg/mL (≈ 4.86 µM).

What about the MIC [3, 26] of the same compound?
Its MIC is 4 µg/mL (≈ 4.86 µM).

What about the MIC [3, 27] of the same compound?
The MIC was 4 µg/mL (≈ 4.86 µM).

What about the MIC [3, 28] of the same compound?
The MIC was 4 µg/mL (≈ 4.86 µM).

And the MIC [3, 29]?
The MIC was 16 µg/mL (≈ 19.4 µM).

And the MIC [3, 30]?
Its MIC is 8 µg/mL (≈ 9.72 µM).

And the MIC [3, 31]?
Its MIC is 2 µg/mL (≈ 2.43 µM).

What about the MIC [3, 32] of the same compound?
Its MIC is 2 µg/mL (≈ 2.43 µM).

And the MIC [4, 33]?
The MIC was greater than 64 µg/mL.

And the MIC [4, 34]?
The MIC was greater than 64 µg/mL.

What about the MIC [4, 35] of the same compound?
The MIC was greater than 64 µg/mL.

And the MIC (Mycobacterium fortuitum; Fortuitum (standard strain))?
Its MIC is greater than 64 µg/mL.

And the MIC (Mycobacterium fortuitum; [36])?
Its MIC is greater than 64 µg/mL.

What about the MIC (Mycobacterium fortuitum; [37]) of the same compound?
The MIC was 64 µg/mL (≈ 77.8 µM).

And the MIC (Mycodacterium chelonei)?
The MIC was greater than 64 µg/mL.
